Reference: patent US10717731B2, “Nitrogen-containing aromatic heterocyclic compound” (MITSUBISHI TANABE PHARMA CORPORATION, priority 2015, dated 2020)

Experiments:
human CYP11B2 = target: T1, human CYP11B2 (Homo sapiens, UniProt P19099); test: Inhibitory effect on hCYP11B2: aldosterone production in mitochondrial fraction of V79 cells stably expressing human CYP11B2, HTRF; type: biochemical; settings: 0.5 μmol/L deoxycorticosterone, 150 μmol/L NADPH, 1.5-2 hours at room temperature
T1 construct: expressed in transfected cells; mitochondrial fraction
T1 sequence (P19099 25-503): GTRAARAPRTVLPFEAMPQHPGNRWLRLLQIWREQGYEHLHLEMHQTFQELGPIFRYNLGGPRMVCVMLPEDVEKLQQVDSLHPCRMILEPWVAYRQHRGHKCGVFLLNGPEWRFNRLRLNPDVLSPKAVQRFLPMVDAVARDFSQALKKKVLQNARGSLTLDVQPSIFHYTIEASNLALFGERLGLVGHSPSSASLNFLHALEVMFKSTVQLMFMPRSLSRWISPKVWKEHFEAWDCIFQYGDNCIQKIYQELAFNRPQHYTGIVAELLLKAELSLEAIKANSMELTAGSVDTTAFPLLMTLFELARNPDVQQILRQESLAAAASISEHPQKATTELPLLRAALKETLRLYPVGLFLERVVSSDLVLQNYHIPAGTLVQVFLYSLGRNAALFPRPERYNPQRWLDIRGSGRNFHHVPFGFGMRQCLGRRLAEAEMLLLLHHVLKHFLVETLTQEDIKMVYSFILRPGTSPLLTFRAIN
Description: Experimental Example 1 (Inhibitory Effect on hCYP11B2)
The pcDNA3.1-human CYP11B2 plasmid was transfected into a Chinese hamster lung fibroblast V79 cell line to produce a cell line stably expressing human CYP11B2 gene.
The cells were cultured and grown in the Dulbecco's modified Eagle's/Ham's medium supplemented with 10% fetal bovine serum and 1% G418 disulfate solution under the environment of 37° C., 95% air, and 5% CO2, and the grown cells were harvested.
Then, the cells were fractionated to obtain mitochondria by reference to a method described in Chabre et al. JCE & M 85 (11) 4060-68, 2000. In particular, the cells suspended in a 5 mmol/L Tris-HCl buffer (pH 7.4) containing 250 mmol/L sucrose were homogenized in a Teflon (Registered Trademark) Potter Elvehjem homogenizer, and then the suspension was centrifuged (800×g, 15 min.). The supernatant was separated and again centrifuged (10000×g, 15 min.) to obtain a pellet (mitochondrial fraction).
The mitochondrial fraction diluted with a buffer containing 10 mmol/L KH2PO4, 10 mmol/L Tris, 20 mmol/L KCl, 25 mmol/L sucrose, 5 mmol/L MgCl2, and 0.05% bovine serum albumin was dispensed to a 96-well plate. 0.5 μmol/L Deoxycorticosterone, 150 μmol/L NADPH and a compound of each concentration were added to each well, and incubated for 1.5-2 hours at room temperature to produce aldosterone. An amount of the produced aldosterone in the incubated solution was determined by using HTRF (Homogeneous Time Resolved Fluorescence) method.
IC50 (nmol/L) was calculated by analyzing the aldosterone production inhibition rate (%) of each concentration of compounds by non-linear regression to a logistic curve.

human Cyp11B1 = target: T2, human Cyp11B1 (Homo sapiens, UniProt P15538); test: Selectivity: IC50 against human Cyp11B2 compared with human Cyp11B1; type: biochemical; settings: ratio of IC50 values (nM)
T2 sequence (P15538 25-503): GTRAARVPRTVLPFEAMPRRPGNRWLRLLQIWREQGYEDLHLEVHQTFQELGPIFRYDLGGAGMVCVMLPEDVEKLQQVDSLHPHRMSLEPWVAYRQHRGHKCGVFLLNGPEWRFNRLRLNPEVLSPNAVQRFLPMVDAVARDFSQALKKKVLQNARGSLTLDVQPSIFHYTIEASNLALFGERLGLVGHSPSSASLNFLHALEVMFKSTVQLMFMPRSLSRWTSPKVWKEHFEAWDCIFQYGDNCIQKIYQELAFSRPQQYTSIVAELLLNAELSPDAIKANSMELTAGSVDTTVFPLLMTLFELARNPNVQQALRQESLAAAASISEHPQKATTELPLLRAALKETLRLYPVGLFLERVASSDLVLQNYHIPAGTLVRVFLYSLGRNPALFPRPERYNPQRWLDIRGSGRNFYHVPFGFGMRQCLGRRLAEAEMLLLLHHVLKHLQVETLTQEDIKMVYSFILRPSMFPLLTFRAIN

| IC50 (human CYP11B2) | IC50 value against human Cyp11B2 versus human Cyp11B1 (selectivity) (human Cyp11B1) | Compound |
| --- | --- | --- |
| 7.5 nM | 100 times | CC(C)NC(=O)CN1CCN(c2cncc(-c3ccc4cnn(C)c4c3)n2)CC1 [Example 49] |
| 12 nM | – | CC(=O)N[C@H]1CC[C@@H](NC(=O)CN2CCN(c3cc(-c4ccc(Cl)cc4)cnn3)CC2)CC1 [Example 69] |
| 6 nM | – | O=C(CN1CCN(c2cc(-c3ccc(Cl)cc3)cnn2)CC1)NC1CCS(=O)(=O)CC1 [Example 70] |
| 16 nM | – | CS(=O)(=O)CCN1CCC(NC(=O)CN2CCN(c3cc(-c4ccc(F)cc4)cnn3)CC2)CC1 [Example 71] |
| 11 nM | – | O=C(CN1CCN(c2cc(-c3ccc(F)cc3)cnn2)CC1)NC1CCC(N2CCOCC2)CC1 (centres unmarked) [Example 72] |
| 18 nM | – | CNC(=O)CN1CCC(NC(=O)CN2CCN(c3cc(-c4ccc(F)cc4)cnn3)CC2)CC1 [Example 73] |
| 19 nM | – | O=C(CN1CCN(c2cc(-c3ccc(F)cc3)cnn2)CC1)NCCN1CCS(=O)(=O)CC1 [Example 74] |
| 41 nM | – | COc1ccccc1-c1cnnc(N2CCN(CC(=O)N[C@H]3CC[C@@H](N(C)C)CC3)CC2)c1 [Example 75] |
| 103 nM | – | COCc1ccc(-c2cnnc(N3CCN(CC(=O)N[C@H]4CC[C@@H](N(C)C)CC4)CC3)c2)cc1 [Example 76] |
| 22 nM | – | Cc1ccccc1-c1cnnc(N2CCN(CC(=O)N[C@H]3CC[C@@H](N(C)C)CC3)CC2)c1 [Example 77] |
| 28 nM | – | O=C(CN1CCN(c2cc(-c3ccc(F)cc3)cnn2)CC1)NC1CCN(CCO)CC1 [Example 78] |
| 21 nM | – | CN(C)[C@H]1CC[C@H](NC(=O)CN2CCN(c3cc(-c4ccc(F)cc4)cnn3)CC2)CC1 [Example 79] |
| 17 nM | – | CN(C)[C@H]1CC[C@H](NC(=O)CN2CCN(c3cc(-c4ccc(Cl)cc4)cnn3)CC2)CC1 [Example 80] |
| 9.1 nM | – | CC1CC=C(c2cnnc(N3CCN(CC(=O)NC(C)C)CC3)c2)CC1 (centres unmarked) [Example 81] |
| 14 nM | – | CC(C)NC(=O)CN1CCN(c2cc(-c3ccc4c(c3)CCO4)cnn2)CC1 [Example 82] |
| 102 nM | – | CC(C)NC(=O)CN1CCN(c2cc(-c3ccc(C#N)nc3)cnn2)CC1 [Example 83] |
| 32 nM | – | CC1CCC(c2cnnc(N3CCN(CC(=O)NC(C)C)CC3)c2)CC1 (centres unmarked) [Example 84] |
| 7 nM | – | CC(C)NC(=O)CN1CCN(c2cc(-c3ccc(F)cc3)cnn2)CC1 [Example 85] |
| 8.4 nM | – | CC(C)NC(=O)CN1CCN(c2cc(-c3ccc4ccccc4c3)cnn2)CC1 [Example 86] |
| 18 nM | – | CC(C)NC(=O)CN1CCN(c2cc(-c3ccc(C(F)(F)F)cc3)cnn2)CC1 [Example 87] |
| 7.8 nM | – | CC(C)(C)OC(=O)N1CC[C@@H](NC(=O)CN2CCN(c3cc(-c4ccc(F)cc4)cnn3)CC2)[C@H](F)C1 [Example 88] |
| 83 nM | – | Cc1c(-c2ccc(F)cc2)cnnc1N1CCN(CC(=O)NC(C)C)CC1 [Example 92] |
